Data as given in patent publication US20240018145A1, “[…]-DEPENDENT EN[…] TREATING OR […]” (priority 2020, published 2024).

System: FLU A (PR/8/34)
Assay: Flu A Neuraminidase Antiviral Assay
Type: cell-based

Compound | EC50 [nM]
CN1C(=O)c2c(O)c(=O)ccn2N2C1CCCC21CCc2ccccc21 (single isomer, unassigned) [Compound 21D, 7-hydroxy-5-methyl-2′,3,3′,4,4a,5-hexahydro-2H-spiro[dipyrido[1,2-b:2′,1′-f][1,2,4]triazine-1,1′-indene]-6,8-dione] | 1550
CCC1(c2ccccc2)CCCC2N(C)C(=O)c3c(O)c(=O)ccn3N21 (single isomer, unassigned) [Compound 22A, 1-ethyl-7-hydroxy-5-methyl-1-phenyl-1,2,3,4,4a,5-hexahydrodipyrido[1,2-b:2′,1′-f][1,2,4]triazine-6,8-dione] | > 8100
CCC1(c2ccccc2)CCCC2N(C)C(=O)c3c(O)c(=O)ccn3N21 (single isomer, unassigned) [Compound 22B, 1-ethyl-7-hydroxy-5-methyl-1-phenyl-1,2,3,4,4a,5-hexahydrodipyrido[1,2-b:2′,1′-f][1,2,4]triazine-6,8-dione] | 5290
CCC1(c2ccccc2)CCCC2N(C)C(=O)c3c(O)c(=O)ccn3N21 (single isomer, unassigned) [Compound 22C, 1-ethyl-7-hydroxy-5-methyl-1-phenyl-1,2,3,4,4a,5-hexahydrodipyrido[1,2-b:2′,1′-f][1,2,4]triazine-6,8-dione] | > 8100
CCC1(c2ccccc2)CCCC2N(C)C(=O)c3c(O)c(=O)ccn3N21 (single isomer, unassigned) [Compound 22D, 1-ethyl-7-hydroxy-5-methyl-1-phenyl-1,2,3,4,4a,5-hexahydrodipyrido[1,2-b:2′,1′-f][1,2,4]triazine-6,8-dione] | 11
CN1C(=O)c2c(O)c(=O)ccn2N2C1CCCC2(C)c1c(F)cccc1F (single isomer, unassigned) [Compound 23A, 1-(2,6-difluorophenyl)-7-hydroxy-1,5-dimethyl-1,2,3,4,4a,5-hexahydrodipyrido[1,2-b:2′,1′-f][1,2,4]triazine-6,8-dione] | > 8100
CN1C(=O)c2c(O)c(=O)ccn2N2C1CCCC2(C)c1c(F)cccc1F (single isomer, unassigned) [Compound 23B, 1-(2,6-difluorophenyl)-7-hydroxy-1,5-dimethyl-1,2,3,4,4a,5-hexahydrodipyrido[1,2-b:2′,1′-f][1,2,4]triazine-6,8-dione] | 2.6
CN1C(=O)c2c(O)c(=O)ccn2N2C1CCCC2(C)c1ccccc1F (single isomer, unassigned) [Compound 24A, 1-(2-fluorophenyl)-7-hydroxy-1,5-dimethyl-1,2,3,4,4a,5-hexahydrodipyrido[1,2-b:2′,1′-f][1,2,4]triazine-6,8-dione] | 2.1
CN1C(=O)c2c(O)c(=O)ccn2N2C1CCCC2(C)c1ccccc1F (single isomer, unassigned) [Compound 24B, 1-(2-fluorophenyl)-7-hydroxy-1,5-dimethyl-1,2,3,4,4a,5-hexahydrodipyrido[1,2-b:2′,1′-f][1,2,4]triazine-6,8-dione] | 1240
CN1C(=O)c2c(O)c(=O)ccn2N2C1CCCC2(C)c1cccc(F)c1 (single isomer, unassigned) [Compound 25A, 1-(3-fluorophenyl)-7-hydroxy-1,5-dimethyl-1,2,3,4,4a,5-hexahydrodipyrido[1,2-b:2′,1′-f][1,2,4]triazine-6,8-dione] | 3.5
CN1C(=O)c2c(O)c(=O)ccn2N2C1CCCC2(C)c1cccc(F)c1 (single isomer, unassigned) [Compound 25B, 1-(3-fluorophenyl)-7-hydroxy-1,5-dimethyl-1,2,3,4,4a,5-hexahydrodipyrido[1,2-b:2′,1′-f][1,2,4]triazine-6,8-dione] | 70.7
CN1C(=O)c2c(O)c(=O)ccn2N2C1CCCC2(C)c1ccc(F)cc1 (single isomer, unassigned) [Compound 26A, 1-(4-fluorophenyl)-7-hydroxy-1,5-dimethyl-1,2,3,4,4a,5-hexahydrodipyrido[1,2-b:2′,1′-f][1,2,4]triazine-6,8-dione] | 8.4
